According to patent US10266548B2, “Substituted benzylindazoles for use as Bub1 kinase inhibitors in the treatment of hyperproliferative diseases” (Bayer Intellectual Property GmbH, priority 2011, dated 2019):
Read-outs that look alike come from different tables or passages of the source.

Legend:
[1] = molecular target: catalytic domain of human Bub1 (amino acids 704-1085) (Homo sapiens (Human), UniProt O43683); test: Bub1 kinase assay (TR-FRET); assay type: biochemical; details: 10 μM ATP, 1 μM peptide substrate; read-out: Biological Assay 1: Bub1 kinase assay median IC50
Protocol: To this end, 100-fold concentrated compound solutions (in DMSO) were previously prepared by serial dilution (1:3.4) of 2 mM stocks in a clear low volume 384-well source microtiter plate (Greiner Bio-One, Frickenhausen, Germany), from which 50 nl of compounds were transferred into a black low volume test microtiter plate from the same supplier. […] The resulting mixture (5 μl final volume) was incubated at 22° C. during 60 min., and the reaction was stopped by the addition of 5 μl of an aqueous EDTA-solution (50 mM EDTA, in 100 mM HEPES pH 7.5 and 0.2% (w/v) bovine serum albumin) which also contained the TR-FRET detection reagents (0.2 μM streptavidin-XL665 [Cisbio Bioassays, Codolet, France] and 1 nM anti-phosho-Serine antibody [Merck Millipore, cat. #35-001] and 0.4 nM LANCE EU-W1024 labeled anti-mouse IgG antibody [Perkin-Elmer, product no. AD0077, alternatively a Terbium-cryptate-labeled anti-mouse IgG antibody from Cisbio Bioassays can be used]). The stopped reaction mixture was further incubated 1 h at 22° C. in order to allow the formation of complexes between peptides and detection reagents. Subsequently, the amount of product was evaluated by measurement of the resonance energy transfer from the Eu-chelate-antlbody complex recognizing the Phosphoserlne residue to the streptavidin-XL665 bound to the biotin moiety of the peptide. […] IC50 values were calculated by fitting the normalized inhibition data to a 4-parameter logistic equation (Minimum, Maximum, IC50, Hill; Y=Max+(Min−Max)/(1+(X/IC50)Hill)) using a Bayer-proprietary analysis software.

HeLa cells = test: Proliferation assay (HeLa cell line); assay type: cell-based; details: Homo sapiens, 96 h, read-out: Biological Assay 2: Proliferation assay (HeLa cell line) median IC50
Protocol: Cultivated tumor cells (cells were ordered from ATCC, except HeLa-MaTu and HeLa-MaTu-ADR, which were ordered from EPO-GmbH, Berlin) were plated at a density of 1000 to 5000 cells/well, depending on the growth rate of the respective cell line, in a 96-well multititer plate in 200 μL of their respective growth medium supplemented 10% fetal calf serum. After 24 hours, the cells of one plate (zero-point plate) were stained with crystal violet (see below), while the medium of the other plates was replaced by fresh culture medium (200 μl), to which the test substances were added in various concentrations (0 μM, as well as in the range of 0.001-10 μM; the final concentration of the solvent dimethyl sulfoxide was 0.5%). The cells were incubated for 4 days in the presence of test substances. Cell proliferation was determined by staining the cells with crystal violet: the cells were fixed by adding 20 μl/measuring point of an 11% glutaric aldehyde solution for 15 minutes at room temperature. After three washing cycles of the fixed cells with water, the plates were dried at room temperature. The cells were stained by adding 100 μl/measuring point of a 0.1% crystal violet solution (pH 3.0). After three washing cycles of the stained cells with water, the plates were dried at room temperature. The dye was dissolved by adding 100 μl/measuring point of a 10% acetic acid solution. […] The change of cell number, in percent, was calculated by normalization of the measured values to the aborbtion values of the zero-point plate (=0%) and the absorbtion of the untreated (0 μm) cells (=100%). The IC50 values were determined by means of a 4 parameter fit using the company's own software.

catalytic domain of human Bub1 (amino acids 704-1085), sequence (O43683 704-1085): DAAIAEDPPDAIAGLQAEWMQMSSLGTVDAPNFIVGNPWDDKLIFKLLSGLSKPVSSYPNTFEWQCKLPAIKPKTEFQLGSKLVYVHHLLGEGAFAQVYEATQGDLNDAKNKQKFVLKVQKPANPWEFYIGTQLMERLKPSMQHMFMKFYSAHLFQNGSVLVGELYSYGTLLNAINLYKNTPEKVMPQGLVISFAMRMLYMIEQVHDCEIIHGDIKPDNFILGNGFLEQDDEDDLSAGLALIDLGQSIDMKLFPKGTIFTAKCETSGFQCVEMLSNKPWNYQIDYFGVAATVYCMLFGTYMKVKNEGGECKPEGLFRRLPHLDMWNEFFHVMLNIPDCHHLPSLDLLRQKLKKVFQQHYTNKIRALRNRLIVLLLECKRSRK

IC50 [1] | IC50 (HeLa cells; 4 days, crystal violet) | Compound | IC50 (HeLa cells)
28 nM | ≥ 10000 nM | COc1cnc(-c2nn(Cc3cc(F)ccc3Cl)c3ccccc23)nc1Nc1ccncc1 [Example 2-31-1, 2-[1-(2-chloro-5-fluorobenzyl)-1H-indazol-3-yl]-5-methoxy-N-(pyridin-4-yl)pyrimidin-4-amine] | 
38 nM | ≥ 10000 nM | COc1cnc(-c2nn(Cc3ccc(C#N)cc3F)c3ccccc23)nc1Nc1ccncc1 [Example 2-33-1, 3-fluoro-4-({3-[5-methoxy-4-(pyridin-4-ylamino)pyrimidin-2-yl]-1H-indazol-1-yl}methyl)benzonitrile] | 
52 nM | ≥ 10000 nM | CCOC(=O)Cc1cccc(Cn2nc(-c3ncc(OC)c(Nc4ccncc4)n3)c3ccccc32)c1 [Example 2-35-1, ethyl [3-({3-[5-methoxy-4-(pyridin-4-ylamino)pyrimidin-2-yl]-1H-indazol-1-yl}methyl)phenyl]acetate] | 
58 nM | ≥ 10000 nM | COc1cnc(-c2nn(Cc3ccc(F)cc3)c3ccccc23)nc1Nc1ccncc1 [Example 2-36-1, 2-[1-(4-fluorobenzyl)-1H-indazol-3-yl]-5-methoxy-N-(pyridin-4-yl)pyrimidin-4-amine] | 
71 nM | ≥ 10000 nM | COc1cnc(-c2nn(Cc3ccc(S(=O)(=O)NC4CC4)cc3)c3ccccc23)nc1Nc1ccncc1 [Example 2-37-1, N-cyclopropyl-4-({3-[5-methoxy-4-(pyridin-4-ylamino)pyrimidin-2-yl]-1H-indazol-1-yl}methyl)benzenesulfonamide] | 
76 nM | ≥ 10000 nM | COc1cnc(-c2nn(Cc3ccc4c(c3)OC(=O)C4)c3ccccc23)nc1Nc1ccncc1 [Example 2-38-1, 6-({3-[5-methoxy-4-(pyridin-4-ylamino)pyrimidin-2-yl]-1H-indazol-1-yl}methyl)-1-benzofuran-2(3H)-one] | 
120 nM | 5600 nM | COc1cnc(-c2nn(Cc3ccc(C(=O)OC(C)(C)C)cc3Cl)c3ccccc23)nc1Nc1ccncc1 [Example 2-40-1, tert-butyl 3-chloro-4-({3-[5-methoxy-4-(pyridin-4-ylamino)pyrimidin-2-yl]-1H-indazol-1-yl}methyl)benzoate] | 

Further lines, the compound ahead of its results:

Compound | IC50 [1] | IC50 (HeLa cells; 4 days, crystal violet) | IC50 (HeLa cells)
COc1cnc(-c2nn(Cc3ccc(C)c(F)c3F)c3ccccc23)nc1Nc1ccncc1 [Example 2-8-1, 2-[1-(2,3-difluoro-4-methylbenzyl)-1H-indazol-3-yl]-5-methoxy-N-(pyridin-4-yl)pyrimidin-4-amine] | 6.7 nM | ≥ 10000 nM | 
COc1cnc(-c2nn(Cc3ccc(-n4cccn4)cc3)c3ccccc23)nc1Nc1ccncc1 [Example 2-8-3, 5-methoxy-2-{1-[4-(1H-pyrazol-1-yl)benzyl]-1H-indazol-3-yl}-N-(pyridin-4-yl)pyrimidin-4-amine] | 57 nM | 10000 nM | 
COc1cnc(-c2nn(Cc3ccccc3Cl)c3ccccc23)nc1Nc1ccncc1 [Example 2-10-1, 2-[1-(2-chlorobenzyl)-1H-indazol-3-yl]-5-methoxy-N-(pyridin-4-yl)pyrimidin-4-amine] | 6.7 nM |  | ≥ 10000 nM
COc1cnc(-c2nn(Cc3ccc(F)c(OC)c3Cl)c3ccccc23)nc1Nc1ccncc1 [Example 2-13-1, 2-[1-(2-chloro-4-fluoro-3-methoxybenzyl)-1H-indazol-3-yl]-5-methoxy-N-(pyridin-4-yl)pyrimidin-4-amine] | 8 nM | 3800 nM | 
CCOc1ccc(Cn2nc(-c3ncc(OC)c(Nc4ccncc4)n3)c3ccccc32)c(F)c1F [Example 2-14-1, 2-[1-(4-ethoxy-2,3-difluorobenzyl)-1H-indazol-3-yl]-5-methoxy-N-(pyridin-4-yl)pyrimidin-4-amine] | 8.3 nM |  | 4700 nM
COc1cnc(-c2nn(Cc3c(F)c(F)c(OCC(F)(F)F)c(F)c3F)c3ccccc23)nc1Nc1ccncc1 [Example 2-15-1, 5-methoxy-N-(pyridin-4-yl)-2-{1-[2,3,5,6-tetrafluoro-4-(2,2,2-trifluoroethoxy)benzyl]-1H-indazol-3-yl}pyrimidin-4-amine] | 38 nM | 4700 nM | 
COc1cnc(-c2nn(Cc3c(F)cc(F)cc3F)c3ccccc23)nc1Nc1ccncc1 [Example 2-17-1, 5-methoxy-N-(pyridin-4-yl)-2-[1-(2,4,6-trifluorobenzyl)-1H-indazol-3-yl]pyrimidin-4-amine] | 8.8 nM |  | ≥ 10000 nM
COc1cnc(-c2nn(Cc3ccc(Cl)cc3Cl)c3ccccc23)nc1Nc1ccncc1 [Example 2-19-1, 2-[1-(2,4-dichlorobenzyl)-1H-indazol-3-yl]-5-methoxy-N-(pyridin-4-yl)pyrimidin-4-amine] | 10 nM | 3400 nM | 
COc1cnc(-c2nn(Cc3ccc(I)cc3F)c3ccccc23)nc1Nc1ccncc1 [Example 2-20-1, 2-[1-(2-fluoro-4-iodobenzyl)-1H-indazol-3-yl]-5-methoxy-N-(pyridin-4-yl)pyrimidin-4-amine] | 11 nM |  | 7300 nM
COc1cnc(-c2nn(Cc3ccccc3Br)c3ccccc23)nc1Nc1ccncc1 [Example 2-21-1, 2-[1-(2-bromobenzyl)-1H-indazol-3-yl]-5-methoxy-N-(pyridin-4-yl)pyrimidin-4-amine] | 12 nM |  | ≥ 10000 nM
COc1ccc(Cn2nc(-c3ncc(OC)c(Nc4ccncc4)n3)c3ccccc32)cc1 [Example 2-23-1, 5-methoxy-2-[1-(4-methoxybenzyl)-1H-indazol-3-yl]-N-(pyridin-4-yl)pyrimidin-4-amine] | 13 nM |  | 9300 nM
COc1cnc(-c2nn(Cc3c(Cl)cc(OC(F)(F)F)cc3Cl)c3ccccc23)nc1N(Cc1c(Cl)cc(OC(F)(F)F)cc1Cl)c1ccncc1 [Example 2-26-2, N-[2,6-dichloro-4-(trifluoromethoxy)benzyl]-2-{1-[2,6-dichloro-4-(trifluoromethoxy)benzyl]-1H-indazol-3-yl}-5-methoxy-N-(pyridin-4-yl)pyrimidin-4-amine] | 840 nM | 2900 nM | 
COc1cnc(-c2nn(Cc3ccc4c(c3)NC(=O)CC4)c3ccccc23)nc1Nc1ccncc1 [Example 2-27-1, 7-({3-[5-methoxy-4-(pyridin-4-ylamino)pyrimidin-2-yl]-1H-indazol-1-yl}methyl)-3,4-dihydroquinolin-2(1H)-one] | 20 nM | ≥ 10000 nM | 
COc1cnc(-c2nn(Cc3ccc(I)cc3Cl)c3ccccc23)nc1Nc1ccncc1 [Example 2-28-1, 2-[1-(2-chloro-4-iodobenzyl)-1H-indazol-3-yl]-5-methoxy-N-(pyridin-4-yl)pyrimidin-4-amine] | 22 nM |  | 8100 nM
COc1cc(Cn2nc(-c3ncc(OC)c(Nc4ccncc4)n3)c3ccccc32)cc(OC)c1 [Example 2-29-1, 2-[1-(3,5-dimethoxybenzyl)-1H-indazol-3-yl]-5-methoxy-N-(pyridin-4-yl)pyrimidin-4-amine] | 23 nM | 9000 nM | 
COc1cnc(-c2nn(Cc3c(Cl)cccc3C(F)(F)F)c3ccccc23)nc1Nc1ccncc1 [Example 2-30-1, 2-{1-[2-chloro-6-(trifluoromethyl)benzyl]-1H-indazol-3-yl}-5-methoxy-N-(pyridin-4-yl)pyrimidin-4-amine] | 23 nM | 2200 nM | 
COc1cnc(-c2nn(Cc3c(F)cc(OC(F)F)cc3F)c3ccccc23)nc1Nc1ccncc1 [Example 2-39-1, 2-{1-[4-(difluoromethoxy)-2,6-difluorobenzyl]-1H-indazol-3-yl}-5-methoxy-N-(pyridin-4-yl)pyrimidin-4-amine] | 5.6 nM |  | 3600 nM
